Among the data in the supplement of paper PMC10290057 are efficacy and AC50 cell viability values, retold here.

The subject of test [1] is HCT116. Put plainly: efficacy (fitted maximal change in viability relative to DMSO control); higher = less cytotoxic (negative = loss of viability). To be noted: 48 h.
Test [2] has as its system HCT116. Put plainly: AC50 cell viability (CellTiter-Glo); higher = less potent. The settings on record: 48 h.
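Throughout, for AC50 cell viability (CellTiter-Glo): HCT116 colorectal carcinoma cells screened at five concentrations per compound, luminescent viability scaled between DMSO wells and empty wells on each plate, curves fitted per compound.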
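Throughout, for efficacy (fitted maximal change in viability relative to DMSO control): Luminescence-based viability readout, five doses per compound, normalized against on-plate DMSO and empty-well controls, followed by dose-response curve fitting for every drug.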

Consider `c1cc(-c2cnn3cc(-c4ccc(N5CCNCC5)cc4)cnc23)c2cccnc2c1`, for which, in the test on HCT116 [1], the efficacy was -81.9%. For the same molecule, the AC50 cell viability in the test on HCT116 [2] came to 6.61 µM.
`c1ccc2c(-c3cnn4cc(-c5ccc(OCCN6CCOCC6)cc5)cnc34)ccnc2c1`: in the test on HCT116 [1], the efficacy was -84.3%. This molecule also gave an AC50 cell viability with HCT116 [2] of 6.45 µM.
Taken in the same sequence, the figures for `CC(/C=C/[C@@H]1C[C@]1(C)c1ccc2c(c1)C(C)(C)CCC2(C)C)=C\C(=O)O` were -66.8% and 23.5 µM.
In the case of `CC(C)c1noc(N2CCC(COc3ccc(-c4ccc([S+](C)(=O)[O-])cc4)nc3)CC2)n1`, in the test with HCT116 [1], the efficacy is -32.3%. Further, the AC50 cell viability in the test with HCT116 [2] amounted to 3.72 µM.
For `Cc1c(C(=O)Nc2cccc(C(F)(F)F)c2)cc(-c2ccccc2)n1CCCN1CCOCC1` the same measures were -75.8% and 20.9 µM.
Regarding `Cc1cnc(Nc2ccc(OCCN3CCCC3)cc2)nc1Nc1cccc([S+](=O)([O-])NC(C)(C)C)c1`, in the test with HCT116 [1], the efficacy was -109%. For the same molecule, in the test on HCT116 [2], the AC50 cell viability came to 2.63 µM.
Taken in the same sequence, the figures for `Cc1cccc(Nc2nc(N[C@@H]3CCCC[C@@H]3N)ncc2C(N)=O)c1` were -94.8% and 7.42 µM.
Regarding `Cc1cc(N2CCOCC2)ccc1Nc1nc(NC2CCCCC2)c2nc[nH]c2n1`, in the test with HCT116 [1], the efficacy was -59.2%. In the test on HCT116 [2], the AC50 cell viability is 6.61 µM.
Taken in the same sequence, the figures for `Cc1ccc(C(C)(O)c2nc3ccccc3s2)c(C)c1` (centres undefined) were -43.4% and 16.6 µM.
For `Cc1cccc(Nc2nc(-c3ccncc3)cs2)c1` the same measures were -69.9% and 18.6 µM.
In the case of `Cc1c[nH]c(-c2cnc(NCCNc3ccc(C#N)cn3)nc2-c2ccc(Cl)cc2Cl)n1`, the efficacy in the test with HCT116 [1] was -72.6%. For the same molecule, in the test on HCT116 [2], the AC50 cell viability was found to be 26.3 µM.
Taken in the same sequence, the figures for `Cc1cccc(-c2[nH]c(C(C)(C)C)nc2-c2ccc3nccnc3c2)n1` were -85.8% and 20.9 µM.
For `Cc1nc2ccc(-n3ncc(C(=O)c4cc5ccccc5[nH]4)c3N)cc2[nH]1` the same measures were -71.3% and 8.33 µM.
For `CC1CC2=CC=CC=C2N1C(=O)C\C3=N\C(=O)\C=C(/N3)N4CCOCC4` (centres undefined), the efficacy in the test on HCT116 [1] is -57.5%. Further, the AC50 cell viability in the test with HCT116 [2] is 18.6 µM.
For `CCN(CC)CCOC1=CC=C(NC2=NC=C3\C=C(/C(=O)N(C)C3=N2)C4=C(Cl)C=CC=C4Cl)C=C1` the same measures were -86.9% and 1.18 µM.
Taken in the same sequence, the figures for `CCN1CCN(CC1)CC(=O)NC2=CC=C(C3=C2C4=C(S3)C=CC=C4)C5=C6O\C(=C/C(=O)C6=CC=C5)N7CCOCC7` were -81.5% and 1.29 µM.
Taken in the same sequence, the figures for `CCN1\C(=C(C(=O)NC)/C(=O)C2=C1N=C(C=C2)C#CC(C)(O)COC)N` (centres undefined) were -31.1% and 18.6 µM.
Take `CCNC(=O)C#Cc1ccc2c(c1)NC(=O)/C2=C(\Nc1ccc(CN(C)C)cc1)c1ccccc1`: the efficacy in the test with HCT116 [1] is -104%. The molecule further gave an AC50 cell viability in the test on HCT116 [2] of 0.257 µM.
Taken in the same sequence, the figures for `CCNC(=O)Nc1ccc(Oc2ncnc(N)c2/C=N/OC)cc1Cl` were -70.7% and 23.5 µM.
Taken in the same sequence, the figures for `CN(C)CCCN\C1=C\2C(=O)N(C)C(=O)\N=C2N(C)C3=C1C=CC=C3` were -67.5% and 5.25 µM.
Taken in the same sequence, the figures for `CN(C)CCN(C)C(=O)c1ccc(NC(=O)Nc2ccc(-c3nc(N4CCOCC4)c4ccn(CC(F)(F)F)c4n3)cc2)cc1` were -118% and 0.263 µM.
For the molecule `CN(C)CCOc1ccc(-c2nc(-c3ccncc3)c(-c3ccc4c(c3)CC/C4=N\O)[nH]2)cc1`, in the test on HCT116 [1], the efficacy is -134%. The molecule also showed an AC50 cell viability in the test with HCT116 [2] of 11.8 µM.
For `Cn1cc(-c2cnn3c(N)c(Br)c([C@@H]4CCCNC4)nc23)cn1`, the efficacy with HCT116 [1] was -108%. Besides, the AC50 cell viability with HCT116 [2] was found to be 13.2 µM.
Take `COc1ccccc1N1CCN(CCN(C(=O)C2CCCCC2)c2ccccn2)CC1`: in the test on HCT116 [1], the efficacy is -31.7%. The same molecule displayed an AC50 cell viability with HCT116 [2] of 13.2 µM.
Taken in the same sequence, the figures for `COc1ccccc1[C@H](c1cccc2ccccc12)[C@@](C)(C#N)C(=O)N1CCC(c2cccc(C(F)(F)F)c2)CC1` were -39.8% and 0.833 µM.
As for `COc1cc2nc(N3CCCN(C)CC3)nc(NC3CCN(Cc4ccccc4)CC3)c2cc1OC`, in the test on HCT116 [1], the efficacy is -95.2%. Besides, the AC50 cell viability in the test on HCT116 [2] was 6.61 µM.
With `COc1cc2c(Nc3ccc(NC(=O)c4ccccc4)cc3)ncnc2cc1OCCCN1CCOCC1`, the efficacy in the test with HCT116 [1] was -120%. Further, the AC50 cell viability in the test on HCT116 [2] stood at 18.6 µM.
Take `COc1ccc(OC)c(-c2nnc3ccc(-c4ccc(OC)c(O[C@@H]5CCOC5)c4)nn23)c1`: in the test with HCT116 [1], the efficacy is -66.5%. The molecule further showed an AC50 cell viability with HCT116 [2] of 2.95 µM.
For `COc1cc(OC)c(/C=C/[S+](=O)([O-])Cc2ccc(OC)c(NCC(=O)[O-])c2)c(OC)c1` the same measures were -58.9% and 0.0661 µM.
For `COc1cc(C(=O)NC2CCN(C)CC2)ccc1Nc1ncc2c(n1)N(C1CCCC1)CCC(=O)N2C(C)C` the same measures were -107% and 14.8 µM.
Taken in the same sequence, the figures for `COc1cc2nc(-c3cc(F)ccc3O)nc(N[C@@H]3CNC[C@H]3C(C)(C)O)c2cc1OC` were -87.7% and 3.72 µM.
Consider `COc1cc2ncnc(Nc3cccc(Br)c3)c2cc1OC`, for which, in the test on HCT116 [1], the efficacy was -53%. This molecule also had an AC50 cell viability in the test with HCT116 [2] of 20.9 µM.
Consider `COc1ccc2nc3[nH]nc(C)c3c(NCCOCCO)c2c1`, for which the efficacy in the test on HCT116 [1] was -82.9%. In the test on HCT116 [2], this molecule returned an AC50 cell viability of 18.6 µM.
Take `COc1ccc2c(c1)[C@]1(C[C@H]1c1ccc3c(/C=C/c4ccc(CN5C[C@@H](C)O[C@@H](C)C5)cc4)n[nH]c3c1)C(=O)N2`: the efficacy in the test with HCT116 [1] is -83.6%. Further, in the test on HCT116 [2], the AC50 cell viability was 13.2 µM.
Taken in the same sequence, the figures for `COCC(=O)NC/C=C/c1ccc2ncnc(Nc3ccc(Oc4ccc(C)nc4)c(C)c3)c2c1` were -64.8% and 20.9 µM.
For `Cc1nc([C@](C)(O)CO)sc1-c1cnc(N)c(O[C@H](C)c2cc(F)ccc2-n2nccn2)c1`, the efficacy in the test on HCT116 [1] was -57.7%. Also, the AC50 cell viability in the test with HCT116 [2] is 3.72 µM.
For `C[C@@H]1CCNC(=O)c2cc3ccc(C(=O)Nc4nc5ccccc5n4CCCN(C)C)cc3n21` the same measures were -92.3% and 11.8 µM.
Take `C[C@H](CN(C)C)Oc1nc(Nc2cc3cccc(Cl)c3cn2)cnc1C#N`: in the test on HCT116 [1], the efficacy was -31.2%. The AC50 cell viability with HCT116 [2] was 3.32 µM.
For `CC(=O)N1c2ccc(-c3ccc(C(=O)O)cc3)cc2[C@H](Nc2ccc(Cl)cc2)C[C@@H]1C` the same measures were -90.5% and 0.833 µM.
For `C[C@H]1C[C@@H](n2c(Nc3ccc(OC(F)(F)F)cc3)nc3cc(CCC(=O)O)ccc32)CC(C)(C)C1` the same measures were -65% and 20.9 µM.
`C[N]1C=C(C=N1)C2=C3\C=N/NC(=O)C4=C3C(=CC(=C4)NC(=O)[C@H](N)C5CCCCC5)[NH]2`: in the test with HCT116 [1], the efficacy is -67.8%. The molecule further had an AC50 cell viability with HCT116 [2] of 16.6 µM.
In the case of `Cn1ncc2cc(-c3cnc(N)c(Cl)c3N3CCC4(CCNC4=O)CC3)ccc21`, the efficacy in the test on HCT116 [1] is -46.1%. Besides, the AC50 cell viability in the test on HCT116 [2] came to 16.6 µM.
Taken in the same sequence, the figures for `C/N=c1\ncc2cc(-c3cc(N/C(O)=N/CCC(C)(C)C)c(F)cc3C)c(C)nc2[nH]1` were -82.1% and 2.63 µM.
`Clc1cc(Cl)cc(CNc2ncncc2-c2ccc3c(c2)OCO3)c1`: the efficacy with HCT116 [1] was -78.4%. In the test on HCT116 [2], this molecule displayed an AC50 cell viability of 13.2 µM.
Taken in the same sequence, the figures for `N#Cc1ccc(Cn2cncc2CN2CCN(c3cccc(Cl)c3)C(=O)C2)cc1` were -46% and 0.332 µM.
Turning to `O=C(Nc1cnccc1Cl)N1CCN(Cc2ccc3c(c2)OC(F)(F)O3)CC1`, the efficacy in the test on HCT116 [1] is -56.5%. Besides, in the test with HCT116 [2], the AC50 cell viability was 14.8 µM.
For `Nc1ncnc(Nc2ccc(OCc3ccccc3)c(Cl)c2)c1/C=N/OCCN1CCOCC1` the same measures were -98% and 26.3 µM.
Taken in the same sequence, the figures for `Nc1ncnc2c1c(COc1cccc(Cl)c1)nn2C1CCOCC1` were -37.2% and 18.6 µM.
In the case of `O=C(NC1CC1)c1cccc(-c2ccc3c(NC(=O)C4CC4)n[nH]c3c2)c1`, in the test with HCT116 [1], the efficacy was -52.3%. Further, in the test with HCT116 [2], the AC50 cell viability amounted to 9.34 µM.
Consider `O=C(O)c1ccc(O)c2ncc(N3CCOCC3)cc12`, for which, in the test with HCT116 [1], the efficacy was -43%. In addition, the AC50 cell viability in the test on HCT116 [2] was 23.5 µM.
As to `Oc1ccc(C2CCN(c3ccnc4ccccc34)CC2)cc1O`, the efficacy with HCT116 [1] is -49%. The AC50 cell viability in the test on HCT116 [2] came to 11.8 µM.
Regarding `Oc1cc(-c2nc(-c3ccccc3)[nH]c2-c2ccncc2)ccc1Cl`, the efficacy with HCT116 [1] was -90.3%. Moreover, the AC50 cell viability in the test on HCT116 [2] worked out at 4.17 µM.
Take `OC1CCC(CC1)N2\C=N/C3=C(C2=N)C(=C([N]3CC4=CC=CC=C4)C5=CC=CC=C5)C6=CC=CC=C6` (centres undefined): in the test on HCT116 [1], the efficacy is -107%. In the test with HCT116 [2], this molecule showed an AC50 cell viability of 2.95 µM.
Taken in the same sequence, the figures for `OC1CCC(Nc2ncc3nc(Nc4c(F)cc(F)cc4F)n([C@@H]4CCOC4)c3n2)CC1` (some centres undefined) were -43.3% and 18.6 µM.
For `O=C(CC12CC3CC(CC(C3)C1)C2)Nc1cccc2nc(NCCNCCO)ccc12` the same measures were -101% and 26.3 µM.
In the case of `O=C(N[C@H]1CCC[C@H](CO)C1)C1CCN(c2nc3cc(Cl)c(-c4ccc(Cl)cc4)cc3o2)CC1`, the efficacy in the test on HCT116 [1] was -83.2%. Also, the AC50 cell viability with HCT116 [2] came to 23.5 µM.
Taken in the same sequence, the figures for `O=C(Nc1ncc(SCCN2CCCC2)s1)[C@]1(c2ccc([S+](=O)([O-])C3CC3)cc2)C[C@H]1C1CCCCC1` were -95.8% and 18.6 µM.
